{"source": "patent US20110052570A1", "about": "“METHOD TO PROGNOSE RESPONSE TO ANTI-EGFR THERAPEUTICS” (CHILDREN'S MEDICAL CENTER CORPORATION, priority 2005, published 2011)", "key": {"[1]": {"test_system": "A375SM melanoma xenograft", "assay": "A375SM melanoma xenograft model in nude mice", "assay_type": "in vivo, mouse", "conditions": "EGFR-negative A375SM xenografts in mice, daily treatment, 4 weeks", "protocol": "A375SM melanoma tumor cells were injected subcutaneously into nude mice. When the tumors reached an average volume of 200 mm^3 the mice were randomized into a control and Iressa treatment groups. The mice were treated daily p.o. with gefitinib (150 mg/kg) or with the vehicle. Tumor volumes were measured every 4 days."}, "[2]": {"test_system": "A375SM tumor EC (melanoma EC)", "assay": "MTT cell proliferation assay, tumor EC", "assay_type": "cell-based, mouse", "protocol": "(§1) Cell proliferation. Cells (4×103) were plated in triplicates into 96 well plates and allowed to adhere overnight. The cells were then switched to serum free media containing growth factors and/or AG1478 at indicated concentrations. Cells were cultured for 72 hr and cell proliferation was determined by addition of 0.42 mg/ml of 3-(4,5-dimethylthiazol-2-yl)-2,5-diphenyltetrazolium bromide (MTT) reagent (Sigma-Aldrich) for 4 hr prior to harvesting. Media was removed and cells were solubilized in DMSO and absorbance was measured at 570 nm. The averages of the triplicates were calculated and cell proliferation was determined as the percentage of absorbance of treated cells to the untreated cells. All the experiments were at least performed twice."}, "EGFR": {"target": "T1, EGFR (Mus musculus, UniProt Q01279)", "T1 construct": "endogenous in cells; host or cells: mouse tumour EC isolated from A375SM melanoma, MDA-MB-231 breast carcinoma and liposarcoma xenografts; mouse skin EC as control", "assay": "EGFR phosphorylation by immunoprecipitation / western blotting in endothelial cells", "assay_type": "cell-based", "conditions": "for ligand-induced EGFR phosphorylation / activation: serum starved A375SM tumor EC, ligand 100 ng/ml", "protocol": "Immunoprecipitation (IP) and western blotting (WB). […] Cells were also treated with the EGFR kinase inhibitor, AG1478 (Calbiochem, San Diego, Calif.), prepared in DMSO, fifteen minutes prior to growth factor stimulation. Immunoprecipitation (IP) and western blotting (WB) were performed as previously described (16). […] Receptor phosphorylation was detected using anti-phosphotyrosine antibody (mAb 4G10; Upstate, Lake Placid, N.Y.). […] In addition antibodies to GAPDH (Chemicon, Temecula, Calif.), (β-Actin (Sigma-Aldrich, St Louis, Mo.), phospho-Erk1-2 (New England Biolab, Beverly Mass.), and Erk1 (Santa Cruz Biotechnology) were purchased."}, "[3]": {"target": "ErbB3 on mouse skin endothelial cells (skin EC) (mouse) (UniProt Q61526)", "assay": "cell-based or functional assay"}, "Erk1/2": {"test_system": "Erk1/2", "assay": "Erk1/2 (MAPK) phosphorylation by western blotting in endothelial cells", "assay_type": "cell-based, mouse", "protocol": "(§2) Immunoprecipitation (IP) and western blotting (WB). […] Cells were also treated with the EGFR kinase inhibitor, AG1478 (Calbiochem, San Diego, Calif.), prepared in DMSO, fifteen minutes prior to growth factor stimulation. Immunoprecipitation (IP) and western blotting (WB) were performed as previously described (16). The antibodies used for IP and WB of ErbB1-4 were: SC-03, SC-284, SC-285, and SC-283 respectively (Santa Cruz Biotechnology, Santa Cruz, Calif.). Receptor phosphorylation was detected using anti-phosphotyrosine antibody (mAb 4G10; Upstate, Lake Placid, N.Y.). Analysis of phosphorylated—EGFR on lysates was performed using phospho-1068 EGFR (Cell Signaling Technologies, Beverly Mass.). In addition antibodies to GAPDH (Chemicon, Temecula, Calif.), (β-Actin (Sigma-Aldrich, St Louis, Mo.), phospho-Erk1-2 (New England Biolab, Beverly Mass.), and Erk1 (Santa Cruz Biotechnology) were purchased."}, "skin EC": {"test_system": "skin EC", "assay": "MTT cell proliferation assay, skin EC", "assay_type": "cell-based, mouse", "conditions": "increasing EGF", "protocol": "as §1"}, "ErbB2": {"test_system": "ErbB2", "assay": "ErbB2 phosphorylation by immunoprecipitation / western blotting in endothelial cells", "assay_type": "cell-based, mouse", "protocol": "as §2"}}, "note": "Entries after “also recorded” stand apart in the source; their conditions may differ.", "data": [{"compound": "COc1cc2ncnc(Nc3ccc(F)c(Cl)c3)c2cc1OCCCN1CCOCC1", "note": "[Iressa, Gefitinib]", "values": [{"measurement": "effect on tumor growth (in words)", "setting": "[1]", "result": "inhibits EGFR negative A375SM melanoma xenograph growth"}, {"measurement": "effect on tumor growth (in words)", "setting": "[1]; listed as geftinib", "result": "effective against EGFR-negative tumors in mice"}]}, {"compound": "COc1cc2ncnc(Nc3cccc(Cl)c3)c2cc1OC", "note": "[AG1478, 4-(3-Chloroanillino)-6,7-dimethoxyquinazoline, reference compound]", "values": [{"measurement": "inhibition of EGF-induced increase in tumor EC cell proliferation", "setting": "[2]; inhibitor at 1 μM, increasing EGF, MTT 72 hr", "result": "completely inhibit"}, {"measurement": "inhibition of EGF-induced tumor EC proliferation", "setting": "[2]; tumor (melanoma) EC, concentration not stated / dose dependent", "result": "completely inhibits EGF dependent proliferation"}, {"measurement": "effect on EGF-induced phosphorylation of EGFR", "setting": "EGFR; skin EC, inhibitor pretreatment, then EGF 100 ng/ml", "result": "had no effect on skin EC"}, {"measurement": "inhibition of EGF-induced phosphorylation of EGFR", "setting": "EGFR; tumor EC (A375SM melanoma EC), inhibitor pretreatment, then EGF 100 ng/ml", "result": "inhibited EGF-induced phosphorylation of EGFR in tumor EC in a dose-dependent manner; also recorded: inhibits EGFR activation on melanoma EC"}]}, {"compound": "NRG1β extra-cellular domain (R&D Systems) (ligand)", "values": [{"measurement": "growth inhibition (MTT assay) of skin EC at 5 ng/ml (0.2 nM) NRG1β", "setting": "[3]", "result": 25, "unit": "%"}]}, {"compound": "HB-EGF: Heparin binding-EGF like growth factor, binds EGFR and ErbB4", "values": [{"measurement": "ligand-induced EGFR phosphorylation / activation", "setting": "EGFR", "result": "promoted EGFR activation in tumor EC"}]}, {"compound": "BTC: betacellulin, binds EGFR and ErbB4", "values": [{"measurement": "ligand-induced EGFR phosphorylation / activation", "setting": "EGFR", "result": "promoted EGFR activation in tumor EC"}]}, {"compound": "TGFα: transforming growth factor-alpha, EGFR ligand", "values": [{"measurement": "ligand-induced EGFR phosphorylation / activation", "setting": "EGFR", "result": "promoted EGFR activation in tumor EC"}]}, {"compound": "EGF: epidermal growth factor, ligand that binds only to EGFR", "values": [{"measurement": "phospho-Erk1/2 levels in the presence of EGF", "setting": "Erk1/2; A375SM tumor EC", "result": "increase in phospho-Erk1/2 levels"}, {"measurement": "MAPK activation by EGF", "setting": "Erk1/2; MDA-MB-231 breast carcinoma EC", "result": "subsequent MAPK activation"}, {"measurement": "MAPK activation by EGF", "setting": "Erk1/2; liposarcoma EC", "result": "subsequent MAPK activation"}, {"measurement": "effect on cell proliferation (in words)", "setting": "skin EC", "result": "did not respond to EGF"}, {"measurement": "increase in cell proliferation", "setting": "[2]; tumor EC, 20 ng/ml of EGF, MTT", "result": 2.5, "unit": "fold"}, {"measurement": "effect on cell proliferation (in words)", "setting": "[2]; tumor EC, increasing EGF, MTT", "result": "dose-dependent increase in cell proliferation"}, {"measurement": "EGF-induced ErbB2 phosphorylation (p-ErbB2)", "setting": "ErbB2; A375SM tumor EC", "result": "increased ErbB2 phosphorylation (p-ErbB2) in tumor EC"}, {"measurement": "ErbB2 activation in response to EGF", "setting": "ErbB2; MDA-MB-231 breast carcinoma EC", "result": "ErbB2 was also activated"}, {"measurement": "ErbB2 activation in response to EGF", "setting": "ErbB2; liposarcoma EC", "result": "ErbB2 was also activated"}]}]}
